# ChEMBL document CHEMBL1140365, “Investigation of glycine alpha-ketoamide HCV NS3 protease inhibitors: effect of carboxylic acid isosteres” (Bioorg Med Chem Lett, 2005)
# pIC50: −log10 of the molar value. *1 amine or outer side, *2 acyl side, *3 side chain or, on linkers, in order; H or OH if unused. Where a SMILES comes first, the peptide text is derived from it. [ ]: non-standard residue; d: D form. The star is where a group is joined. Abu(ψCOCO) = CC[C@H](N[*:1])C(=O)C(=O)[*:2]; X1 = O=C(C(=O)[*:2])[C@H](CC(F)F)N[*:1]; Pyrazinecarbonyl = O=C(c1cnccn1)*; Cha = N[C@@H](CC1CCCCC1)C(=O)O
# Target: NS3 (Hepatitis C virus, UniProt A3EZJ3)
# Sequence (A3EZJ3 whole entry): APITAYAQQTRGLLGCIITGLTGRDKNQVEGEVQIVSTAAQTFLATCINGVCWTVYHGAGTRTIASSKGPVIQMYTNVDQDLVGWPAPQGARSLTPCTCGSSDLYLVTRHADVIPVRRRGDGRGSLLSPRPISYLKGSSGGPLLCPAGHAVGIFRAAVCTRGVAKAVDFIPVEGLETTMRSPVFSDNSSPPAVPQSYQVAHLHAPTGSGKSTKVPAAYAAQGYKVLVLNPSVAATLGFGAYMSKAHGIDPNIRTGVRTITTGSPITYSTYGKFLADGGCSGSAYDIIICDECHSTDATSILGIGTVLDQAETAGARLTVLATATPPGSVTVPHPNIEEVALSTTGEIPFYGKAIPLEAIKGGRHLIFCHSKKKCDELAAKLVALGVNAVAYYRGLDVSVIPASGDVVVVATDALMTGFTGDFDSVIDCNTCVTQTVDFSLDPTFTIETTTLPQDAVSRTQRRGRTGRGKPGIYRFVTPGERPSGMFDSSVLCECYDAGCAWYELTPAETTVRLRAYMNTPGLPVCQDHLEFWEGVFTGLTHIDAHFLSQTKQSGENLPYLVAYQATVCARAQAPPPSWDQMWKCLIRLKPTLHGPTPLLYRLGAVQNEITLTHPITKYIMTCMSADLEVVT
# Experiment: Inhibitory concentration against glycine alpha-ketoamide HCV NS3 protease
# Parameters: species or system Hepacivirus hominis
row,Compound,pIC50
1,CC[C@H](NC(=O)[C@H](CC1CCCCC1)NC(=O)[C@@H](NC(=O)[C@H](CC(C)C)NC(=O)c1cnccn1)[C@@H](C)CC)C(=O)C(=O)NCC(=O)NS(=O)(=O)Cc1ccccc1,4.92
2,CC[C@H](NC(=O)[C@H](CC1CCCCC1)NC(=O)[C@@H](NC(=O)[C@H](CC(C)C)NC(=O)c1cnccn1)[C@@H](C)CC)C(=O)C(=O)NCC(=O)NS(=O)(=O)c1cc(Cl)cc(Cl)c1,6.89
3,CC[C@H](C)[C@H](NC(=O)[C@H](CC(C)C)NC(=O)c1cnccn1)C(=O)N[C@@H](CC1CCCCC1)C(=O)N[C@@H](CC(F)F)C(=O)C(=O)NCC(=O)NS(=O)(=O)c1cccc(-c2ccccc2)c1,7.22
4,CCCCCC(=O)Nc1nnc(S(=O)(=O)NC(=O)CNC(=O)C(=O)[C@H](CC(F)F)NC(=O)[C@H](CC2CCCCC2)NC(=O)[C@@H](NC(=O)[C@H](CC(C)C)NC(=O)c2cnccn2)[C@@H](C)CC)s1,7.70
5,CC[C@H](C)[C@H](NC(=O)[C@H](CC(C)C)NC(=O)c1cnccn1)C(=O)N[C@@H](CC1CCCCC1)C(=O)N[C@@H](CC(F)F)C(=O)C(=O)NCC(=O)NS(=O)(=O)c1nnc(NC(=O)c2ccc(Cl)cc2)s1,7.70
6,CC[C@H](NC(=O)[C@H](CC1CCCCC1)NC(=O)[C@@H](NC(=O)[C@H](CC(C)C)NC(=O)c1cnccn1)[C@@H](C)CC)C(=O)C(=O)NCC(=O)NS(=O)(=O)c1ccc(-c2ccccc2)cc1,5.62
7,CC[C@H](NC(=O)[C@H](CC1CCCCC1)NC(=O)[C@@H](NC(=O)[C@H](CC(C)C)NC(=O)c1cnccn1)[C@@H](C)CC)C(=O)C(=O)NCC(=O)NS(=O)(=O)c1cccc(-c2ccccc2)c1,6.19
8,CC[C@H](C)[C@H](NC(=O)[C@H](CC(C)C)NC(=O)c1cnccn1)C(=O)N[C@@H](CC1CCCCC1)C(=O)N[C@@H](CC(F)F)C(=O)C(=O)NCC(=O)NS(=O)(=O)c1cc(Cl)cc(S(=O)(=O)NC(=O)c2ccccc2)c1,7.22
9,CC[C@H](NC(=O)[C@H](CC1CCCCC1)NC(=O)[C@@H](NC(=O)[C@H](CC(C)C)NC(=O)c1cnccn1)[C@@H](C)CC)C(=O)C(=O)NCC(=O)NS(=O)(=O)c1cc(Cl)cc(S(=O)(=O)NC(=O)c2ccccc2)c1,6.92
10,CC[C@H](C)[C@H](NC(=O)[C@H](CC(C)C)NC(=O)c1cnccn1)C(=O)N[C@@H](CC1CCCCC1)C(=O)N[C@@H](CC(F)F)C(=O)C(=O)NCC(=O)NS(=O)(=O)c1cc(Cl)cc(S(N)(=O)=O)c1,7.30
11,CC[C@H](NC(=O)[C@H](CC1CCCCC1)NC(=O)[C@@H](NC(=O)[C@H](CC(C)C)NC(=O)c1cnccn1)[C@@H](C)CC)C(=O)C(=O)NCC(=O)NS(C)(=O)=O,4.60
12,CC[C@H](NC(=O)[C@H](CC1CCCCC1)NC(=O)[C@@H](NC(=O)[C@H](CC(C)C)NC(=O)c1cnccn1)[C@@H](C)CC)C(=O)C(=O)NCC(=O)O (Pyrazinecarbonyl-LI[Cha][Abu(ψCOCO)]G-OH),6.64
13,CC[C@H](C)[C@H](NC(=O)[C@H](CC(C)C)NC(=O)c1cnccn1)C(=O)N[C@@H](CC1CCCCC1)C(=O)N[C@@H](CC(F)F)C(=O)C(=O)NCC(=O)O (Pyrazinecarbonyl-LI[Cha][X1]G-OH),7.22

# More lines, in order of rising pIC50, values ahead:
row,pIC50,Compound
1,5.05,CC[C@H](NC(=O)[C@H](CC1CCCCC1)NC(=O)[C@@H](NC(=O)[C@H](CC(C)C)NC(=O)c1cnccn1)[C@@H](C)CC)C(=O)C(=O)NCC(=O)NS(=O)(=O)c1ccccc1
2,5.92,CC[C@H](NC(=O)[C@H](CC1CCCCC1)NC(=O)[C@@H](NC(=O)[C@H](CC(C)C)NC(=O)c1cnccn1)[C@@H](C)CC)C(=O)C(=O)NCC(=O)NS(=O)(=O)c1ccc2ccccc2c1
3,6.04,CC[C@H](NC(=O)[C@H](CC1CCCCC1)NC(=O)[C@@H](NC(=O)[C@H](CC(C)C)NC(=O)c1cnccn1)[C@@H](C)CC)C(=O)C(=O)NCC(=O)NS(=O)(=O)c1ccc([N+](=O)[O-])cc1
4,6.33,CC[C@H](NC(=O)[C@H](CC1CCCCC1)NC(=O)[C@@H](NC(=O)[C@H](CC(C)C)NC(=O)c1cnccn1)[C@@H](C)CC)C(=O)C(=O)NCC(=O)NS(=O)(=O)C(F)(F)F
5,6.34,CC[C@H](NC(=O)[C@H](CC1CCCCC1)NC(=O)[C@@H](NC(=O)[C@H](CC(C)C)NC(=O)c1cnccn1)[C@@H](C)CC)C(=O)C(=O)NCc1nn[nH]n1
6,6.39,CC[C@H](NC(=O)[C@H](CC1CCCCC1)NC(=O)[C@@H](NC(=O)[C@H](CC(C)C)NC(=O)c1cnccn1)[C@@H](C)CC)C(=O)C(=O)NCC(=O)NS(=O)(=O)c1cccc([N+](=O)[O-])c1
7,6.60,CC[C@H](NC(=O)[C@H](CC1CCCCC1)NC(=O)[C@@H](NC(=O)[C@H](CC(C)C)NC(=O)c1cnccn1)[C@@H](C)CC)C(=O)C(=O)NCC(=O)NS(=O)(=O)c1cccc(Cl)c1
8,6.60,CC[C@H](NC(=O)[C@H](CC1CCCCC1)NC(=O)[C@@H](NC(=O)[C@H](CC(C)C)NC(=O)c1cnccn1)[C@@H](C)CC)C(=O)C(=O)NCC(=O)NS(=O)(=O)c1nnc(NC(C)=O)s1
9,6.66,CC[C@H](NC(=O)[C@H](CC1CCCCC1)NC(=O)[C@@H](NC(=O)[C@H](CC(C)C)NC(=O)c1cnccn1)[C@@H](C)CC)C(=O)C(=O)NCS(=O)(=O)O
10,6.96,CC[C@H](NC(=O)[C@H](CC1CCCCC1)NC(=O)[C@@H](NC(=O)[C@H](CC(C)C)NC(=O)c1cnccn1)[C@@H](C)CC)C(=O)C(=O)NCC(=O)NS(=O)(=O)c1cc(C(=O)O)ccc1Cl
11,7.40,CC[C@H](C)[C@H](NC(=O)[C@H](CC(C)C)NC(=O)c1cnccn1)C(=O)N[C@@H](CC1CCCCC1)C(=O)N[C@@H](CC(F)F)C(=O)C(=O)NCc1nn[nH]n1
